The target of this test is T1, Xenopus laevis Aurora B/INCENP complex (Xenopus laevis, UniProt Q6DE08).
T1 construct: equipped at the N-terminal position with a GST tag (amino acids 60-361); GST (N, cleaved yes); made in house; host or cells: E. coli BL21 (DE3)
Nature of the test: Aurora-B kinase assay (radioactive enzyme inhibition assay). To be noted: test substance at 1 μM; percentage of the positive control (maximum value without test substance). In kind it is biochemical. An excerpt:
Example Aurora-B Kinase Assay
A radioactive enzyme inhibition assay was developed using E. coli-expressed recombinant Xenopus laevis Aurora B wild-type protein equipped at the N-terminal position with a GST tag (amino acids 60-361) in a complex with Xenopus laevis INCENP (amino acids 790-847), which is obtained from bacteria and purified. In equivalent manner a Xenopus laevis Aurora B mutant (G96V) in a complex with Xenopus laevis INCENP^790-847 may also be used.
Expression and Purification
The coding sequence for Aurora-B^60-361 from Xenopus laevis is cloned into a modified version of pGEX-6T (Amersham Biotech) via BamHI and SalI cutting sites. The vector contains two cloning cassettes which are separated by a ribosomal binding site, allowing bi-cistronic expression. In this configuration Xenopus laevis Aurora B is expressed by the first cassette, and the Xenopus laevis INCENP^790-847 is expressed by the second cassette. The resulting vector is pAUB-IN^847.
First of all the E. coli strain BL21 (DE3) is co-transformed with pUBS520 helper plasmid and pAUB-IN^847, after which protein expression is induced using 0.3 mM IPTG at an OD600 of 0.45-0.7. The expression is then continued for approx. 12-16 h at 23-25° C. with agitation.
The bacteria are then removed by centrifuging and the pellet is lysed in lysis buffer (50 mM Tris/Cl pH 7.6, 300 mM NaCl, 1 mM DTT, 1 mM EDTA, 5% glycerol, Roche Complete Protease Inhibitor tablets) using ultrasound, using 20-30 mL lysis buffer per liter of E. coli culture. The lysed material is freed from debris by centrifugation (12000 rpm, 45-60 min, JA20 rotor). The supernatant is incubated with 300 μL of equilibrated GST Sepharose Fast Flow (Amersham Biosciences) per liter of E. coli culture for 4-5 h at 4° C. Then the column material is washed with 30 volumes of lysis buffer and then equilibrated with 30 volumes of cleavage buffer (50 mM Tris/Cl pH 7.6, 150 mM NaCl, 1 mM DTT, 1 mM EDTA). To cleave the GST tag from Aurora B, 10 units of Prescission Protease (Amersham Biosciences) are used per milligram of substrate and the mixture is incubated for 16 h at 4° C. The supernatant which contains the cleavage product is loaded onto a 6 mL Resource Q column (Amersham Biosciences) equilibrated with ion exchange buffer (50 mM Tris/Cl pH 7.6, 150 mM NaCl, 1 mM DTT, 1 mM EDTA). The Aurora B/INCENP complex is caught as it flows through, then concentrated and loaded onto a Superdex 200 size exclusion chromatography (SEC) column equilibrated with SEC buffer (10 mM Tris/Cl pH 7.6, 150 mM NaCl, 1 mM DTT, 1 mM EDTA). Fractions which contain the AuroraB/INCENP complex are collected and concentrated using Vivaspin concentrators (molecular weight exclusion 3000-5000 Da) to a final concentration of 12 mg/mL. Aliquots (e.g. 240 ng/μL) for kinase assays are transferred from this stock solution into freezing buffer (50 mM Tris/Cl pH 8.0, 150 mM NaCl, 0.1 mM EDTA, 0.03% Brij-35, 10% glycerol, 1 mM DTT) and stored at −80° C.
Test substances are placed in a polypropylene dish (96 wells, Greiner #655 201), in order to cover a concentration frame of 10 μM-0.0001 μM. The final concentration of DMSO in the assay is 5%. 30 μL of protein mix (50 mM tris/Cl pH 7.5, 25 mM MgCl2, 25 mM NaCl, 167 μM ATP, 10 ng Xenopus laevis Aurora B/INCENP complex in freezing buffer) are pipetted into the 10 μl of test substance provided in 25% DMSO and this is incubated for 15 min at RT. Then 10 μL of peptide mix (100 mM tris/Cl pH 7.5, 50 mM MgCl2, 50 mM NaCl, 5 μM NaF, 5 μM DTT, 1 μCi gamma-P33-ATP [Amersham], 50 μM substrate peptide [biotin-[…] or multimers thereof, or biotin-[…] or multimers thereof, or biotin-[…]]) are added. The reaction is incubated for 75 min (ambient temperature) and stopped by the addition of 180 μL of 6.4% trichloroacetic acid and incubated for 20 min on ice. […]

T1 sequence (Q6DE08 60-361): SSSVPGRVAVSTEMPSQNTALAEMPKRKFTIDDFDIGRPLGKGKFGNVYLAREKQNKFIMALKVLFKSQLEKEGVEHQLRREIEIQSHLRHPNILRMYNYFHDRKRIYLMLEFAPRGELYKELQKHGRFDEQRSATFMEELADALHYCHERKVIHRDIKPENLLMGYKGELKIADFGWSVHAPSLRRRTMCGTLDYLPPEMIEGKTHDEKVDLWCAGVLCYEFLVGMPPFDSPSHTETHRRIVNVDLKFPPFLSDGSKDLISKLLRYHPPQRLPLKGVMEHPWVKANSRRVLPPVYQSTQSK
T1 sequence (O13024 790-847 partner limits assumed): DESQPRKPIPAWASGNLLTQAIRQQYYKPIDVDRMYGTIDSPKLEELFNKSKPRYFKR

Turning to `CCNc1cnc(-c2ccc3c(c2)NC(=O)/C3=C(\Nc2ccc(CN(C)C)cc2)c2ccccc2)cn1` [Example 1], the remaining activity at 1 µM was determined as 15.2%.

Regarding `CN(C)Cc1ccc(N/C(=C2\C(=O)Nc3cc(-c4cnc(NCC5CC5)cn4)ccc32)c2ccccc2)cc1` [Example 2], the remaining activity at 1 µM amounted to 12.6%.

`CCNc1ccc(-c2ccc3c(c2)NC(=O)/C3=C(\Nc2ccc(CN(C)C)cc2)c2ccccc2)cn1` [Example 5]: the remaining activity at 1 µM was 7.08%. Regarding `CN(C)Cc1ccc(N/C(=C2\C(=O)Nc3cc(-c4ccc(N(C)C)nc4)ccc32)c2ccccc2)cc1` [Example 6], the remaining activity at 1 µM worked out at 11.4%. For the compound `CNc1ccc(-c2ccc3c(c2)NC(=O)/C3=C(\Nc2ccc(CN(C)C)cc2)c2ccccc2)cn1` [Example 8], the remaining activity at 1 µM amounted to 15.6%.

For `CN(C)Cc1ccc(N/C(=C2\C(=O)Nc3cc(-c4cnc(N5CCCC5)nc4)ccc32)c2ccccc2)cc1` [Example 10], the remaining activity at 1 µM was found to be 10.6%. Consider `CN(C)Cc1ccc(N/C(=C2\C(=O)Nc3cc(-c4ccc(S(C)(=O)=O)cc4)ccc32)c2ccccc2)cc1` [Example 12], for which the remaining activity at 1 µM was determined as 40%. As to `CN(C)Cc1ccc(N/C(=C2\C(=O)Nc3cc(-c4ccc(N5CCOCC5)nc4)ccc32)c2ccccc2)cc1` [Example 14], the remaining activity at 1 µM came out at 20.7%. Under `CN(C)Cc1ccc(N/C(=C2\C(=O)Nc3cc(-c4ccc(OCC5CC5)nc4)ccc32)c2ccccc2)cc1` [Example 15] stands 22%; under `Cc1ccc(-c2ccc3c(c2)NC(=O)/C3=C(\Nc2ccc(CN(C)C)cc2)c2ccccc2)cn1` [Example 17], 21.1%; under `Cc1cnccc1-c1ccc2c(c1)NC(=O)/C2=C(\Nc1ccc(CN(C)C)cc1)c1ccccc1` [Example 20], 107%. On to `CN(C)Cc1ccc(N/C(=C2\C(=O)Nc3cc(-c4ccccc4NS(C)(=O)=O)ccc32)c2ccccc2)cc1` [Example 23], for which the remaining activity at 1 µM turned out to be 70.6%. On to `CN(C)Cc1ccc(N/C(=C2\C(=O)Nc3cc(-c4cccc(C#N)c4)ccc32)c2ccccc2)cc1` [Example 39], for which the remaining activity at 1 µM was 30.9%. As for `CN(C)Cc1ccc(N/C(=C2\C(=O)Nc3cc(-c4cnc5ccccc5c4)ccc32)c2ccccc2)cc1` [Example 40], the remaining activity at 1 µM turned out to be 34.7%. Consider `CC(=O)c1cncc(-c2ccc3c(c2)NC(=O)/C3=C(\Nc2ccc(CN(C)C)cc2)c2ccccc2)c1` [Example 41], for which the remaining activity at 1 µM is 13.5%. For the compound `CN(C)Cc1ccc(N/C(=C2\C(=O)Nc3cc(-c4cnc(C(=O)O)nc4)ccc32)c2ccccc2)cc1` [Example 42], the remaining activity at 1 µM is 139%.

For the compound `CN(C)Cc1ccc(N/C(=C2\C(=O)Nc3cc(-c4ccc(C(N)=O)cc4)ccc32)c2ccccc2)cc1` [Example 43], the remaining activity at 1 µM is 102%. Take `CN(C)Cc1ccc(N/C(=C2\C(=O)Nc3cc(-c4cnc(N(C)C)nc4)ccc32)c2ccccc2)cc1` [Example 44]: the remaining activity at 1 µM was determined as 27.9%. The figure for `CN(C)Cc1ccc(N/C(=C2\C(=O)Nc3cc(-c4cnc(NC5CCC5)nc4)ccc32)c2ccccc2)cc1` [Example 45] is 1.76%.

In the case of `CC(C)Nc1ncc(-c2ccc3c(c2)NC(=O)/C3=C(\Nc2ccc(CN(C)C)cc2)c2ccccc2)cn1` [Example 46], the remaining activity at 1 µM was 2.13%. `CN(C)Cc1ccc(N/C(=C2\C(=O)Nc3cc(-c4cnc(NCC(F)F)nc4)ccc32)c2ccccc2)cc1` [Example 47]: the remaining activity at 1 µM is 1.59%. With `CN(C)Cc1ccc(N/C(=C2\C(=O)Nc3cc(-c4cnc(NC5CC5)nc4)ccc32)c2ccccc2)cc1` [Example 48], the remaining activity at 1 µM came out at 3.44%.

Regarding `CCCNc1ncc(-c2ccc3c(c2)NC(=O)/C3=C(\Nc2ccc(CN(C)C)cc2)c2ccccc2)cn1` [Example 50], the remaining activity at 1 µM was 2.79%. As to `CN(C)Cc1ccc(N/C(=C2\C(=O)Nc3cc(-c4cnc(NCC5CC5)nc4)ccc32)c2ccccc2)cc1` [Example 51], the remaining activity at 1 µM is 3.84%.

Consider `CCNc1ncc(-c2ccc3c(c2)NC(=O)/C3=C(\Nc2ccc(CN(C)C)cc2)c2ccccc2)cn1` [Example 52], for which the remaining activity at 1 µM was found to be 2.78%. On to `CN(C)Cc1ccc(N/C(=C2\C(=O)Nc3cc(-c4ccc(C(=O)O)nc4)ccc32)c2ccccc2)cc1` [Example 54], for which the remaining activity at 1 µM turned out to be 157%. With `CN(C)Cc1ccc(N/C(=C2\C(=O)Nc3cc(-c4ccc(NCC5CC5)nc4)ccc32)c2ccccc2)cc1` [Example 55], the remaining activity at 1 µM came out at 5.91%. Under `CN(C)Cc1ccc(N/C(=C2\C(=O)Nc3cc(-c4ccc(NC5CCC5)nc4)ccc32)c2ccccc2)cc1` [Example 56] stands 5.45%; under `CCCNc1ccc(-c2ccc3c(c2)NC(=O)/C3=C(\Nc2ccc(CN(C)C)cc2)c2ccccc2)cn1` [Example 57], 5.74%; under `CC(C)Nc1ccc(-c2ccc3c(c2)NC(=O)/C3=C(\Nc2ccc(CN(C)C)cc2)c2ccccc2)cn1` [Example 58], 8.01%.

As to `CN(C)Cc1ccc(N/C(=C2\C(=O)Nc3cc(-c4ccc(NC5CC5)nc4)ccc32)c2ccccc2)cc1` [Example 59], the remaining activity at 1 µM is 9.19%. In the case of `CN(C)Cc1ccc(N/C(=C2\C(=O)Nc3cc(-c4ccc5c(c4)CC(=O)N5)ccc32)c2ccccc2)cc1` [Example 60], the remaining activity at 1 µM stood at 26.3%.

For the compound `CN(C)Cc1ccc(N/C(=C2\C(=O)Nc3cc(-c4cn[nH]c4)ccc32)c2ccccc2)cc1` [Example 61], the remaining activity at 1 µM was determined as 14.1%. Regarding `CC(=O)Nc1ccc(-c2ccc3c(c2)NC(=O)/C3=C(\Nc2ccc(CN(C)C)cc2)c2ccccc2)cn1` [Example 62], the remaining activity at 1 µM was found to be 1.96%. `COc1cncc(-c2ccc3c(c2)NC(=O)/C3=C(\Nc2ccc(CN(C)C)cc2)c2ccccc2)c1` [Example 63]: the remaining activity at 1 µM turned out to be 11%.

For the compound `CN(C)Cc1ccc(N/C(=C2\C(=O)Nc3cc(-c4cccc(-n5cccn5)c4)ccc32)c2ccccc2)cc1` [Example 64], the remaining activity at 1 µM is 13.4%. As for `CN(C)Cc1ccc(N/C(=C2\C(=O)Nc3cc(-c4cccc(S(=O)(=O)N(C)C)c4)ccc32)c2ccccc2)cc1` [Example 65], the remaining activity at 1 µM is 27.6%. Take `CN(C)Cc1ccc(N/C(=C2\C(=O)Nc3cc(-c4ccc(N)nc4)ccc32)c2ccccc2)cc1` [Example 66]: the remaining activity at 1 µM worked out at 18.3%.

Regarding `CN(C)Cc1ccc(N/C(=C2\C(=O)Nc3cc(-c4cccc(S(N)(=O)=O)c4)ccc32)c2ccccc2)cc1` [Example 67], the remaining activity at 1 µM came out at 5.48%. `CN(C)Cc1ccc(N/C(=C2\C(=O)Nc3cc(-c4cccc(C(N)=O)c4)ccc32)c2ccccc2)cc1` [Example 68]: the remaining activity at 1 µM was 18.1%. Take `CC(=O)Nc1cccc(-c2ccc3c(c2)NC(=O)/C3=C(\Nc2ccc(CN(C)C)cc2)c2ccccc2)c1` [Example 69]: the remaining activity at 1 µM came out at 17.2%. For the compound `COc1ccc(-c2ccc3c(c2)NC(=O)/C3=C(\Nc2ccc(CN(C)C)cc2)c2ccccc2)cn1` [Example 70], the remaining activity at 1 µM was 17.3%.

Regarding `CN(C)Cc1ccc(N/C(=C2\C(=O)Nc3cc(-c4cccnc4)ccc32)c2ccccc2)cc1` [Example 71], the remaining activity at 1 µM was 24.5%.

Source of the values: patent publication US8853420B2, “Compounds” (Boehringer Ingelheim International GmbH, priority 2008, dated 2014).
